Source: article PMC9034499, “RORγt agonist enhances anti-PD-1 therapy by promoting monocyte-derived dendritic cells through CXCL10 in cancers” (Journal of Experimental & Clinical Cancer Research : CR, 2022)

Columns and labels:
[1] = target: T1, RORγt LBD protein (Homo sapiens, UniProt P51449); test: Biacore binding to RORγt LBD protein; conditions: RORγt protein immobilized on CM5 chip
T1 construct: RORγt (residues 263–509)-GGG-SRC1; GGG linker + SRC1 peptide (C); His-tag (inferred from pET28a and nickel purification); made in house; host or cells: E. coli strain DE3, pET28a
T1 sequence (P51449 263-509): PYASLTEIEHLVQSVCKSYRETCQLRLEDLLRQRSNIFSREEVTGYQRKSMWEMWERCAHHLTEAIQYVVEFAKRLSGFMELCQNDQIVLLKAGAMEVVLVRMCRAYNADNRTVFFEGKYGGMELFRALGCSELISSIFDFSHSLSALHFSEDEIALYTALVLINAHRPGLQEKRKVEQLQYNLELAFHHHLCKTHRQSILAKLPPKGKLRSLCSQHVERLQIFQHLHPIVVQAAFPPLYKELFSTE
Text: (§1) Human nuclear receptor RORγt (residues 263–509)-GGG-SRC1 (SRC1 sequence: EKHKILHRLLQDS, Sangon Biotech, Shanghai). RORγt LBD was cloned in pET28a. Key residue mutations of RORγt LBD (such as PHE388, LEU391, CYS393, LEU396, ILE397, ILE400, CYS320, ALA321, LEU324, MET358, and PHE388) with LYC-55716 were cloned in pET28a. Key residue mutations of RORγt LBD (MET365, ALA368, PHE401, ILE400, ILE397, LEU396, TRP317, CYS320, LEU324, ALA327, TYR330, VAL331, MET358, and VAL361) with 8-074 were cloned in pET28a. The proteins were expressed in E. coli strain DE3. Then, the transformed E. coli culture was grown at 37 °C with 30 μg/mL Kanamycin LB (Luria–Bertani). When the OD600 of LB medium reached 0.6, the temperature was changed to 16 °C, and isopropyl-β-D-thiogalactopyranoside (IPTG, Beyotime, Shanghai, China) was added at a final concentration of 0.4 mM to induce protein expression for 16 h. After 16 h, the pellet was collected after centrifugation at 4,000 rpm for 15 min at 4 °C. […]
(§2) The RORγt protein was immobilized on a CM5 chip (GE Health, Chicago, USA) using Biaocre 8 K. A sensogram was obtained using different serial concentrations of 8-074 (5000 nM, 2500 nM, 1250 nM, 625 nM, 312.5 nM, 156.25 nM, 78.125 nM, and 39.0625 nM). […] Data were analyzed using Biacore Evaluation Software.

[2] = test system: mutated RORγt protein at key binding sites; test: Biacore binding to mutated RORγt LBD protein; set-up: species or system human
Text: as §1, §2

[3] = test system: Th17 cells (CD4+ T cells); test: Murine Th17 differentiation, flow cytometry; assay type: cell-based, mouse; conditions: Th17, intracellular staining, same concentration
Procedure: CD4^+ CD25^−CD62L^high cells were purified from C57BL/6 splenocytes using an EasySep Mouse Naïve CD4^+ T cell isolation kit from STEMCELL Technologies (Vancouver, Canada), and they were differentiated into Th17 cells (TGF-β, 2 ng/ml; IL-6, 20 ng/ml; Anti-IFN-γ, 10 μg/ml; Anti-IL-4, 10 μg/ml, BioLegend, San Diego, CA) in the presence of plate-bound anti-CD3 (5 μg/ml, BioLegend, San Diego, CA) and anti-CD28 (2 μg/ml, BioLegend, San Diego, CA). The cells were harvested and processed for cytokine analysis at the RNA or protein level using real-time qPCR, flow cytometry, and ELISA on day five. Alternatively, splenocytes from OT-I mice were activated using OVA-derived peptides SIINFEKL (50 ng/ml, Sangon Biotech, Shanghai, China) and polarized to Tc17 cells using cytokine TGF-β (2 ng/ml, BioLegend, San Diego, CA) and IL-6 (20 ng/ml, BioLegend, San Diego, CA) for four or five days.
Cells were stained with fluorochrome-labeled anti-mouse Ab such as CD45, CD3, CD4, CD8, Foxp3, IFN-γ, IL-17A, CD11b, CD11c, pAKT, pSTAT3, CCR6, or MHCII. […] Cells were acquired using the FACS Aria II machine and analyzed using FlowJo software.

Kd [1]: 0.497 µM
binding affinity with the mutated RORγt protein [2]: no binding affinity
Compound: CCS(=O)(=O)c1ccc(CC(=O)Nc2ccc(-c3ccc(CC(C)C)c(C#N)c3)c(C(F)(F)F)c2)cc1 [8-074]
percentage of CD4+ T cells that express IL-17A [3]: 24.0%
